One compound from US6492381B1, “Tricyclic carbamate compounds useful for inhibition of G-protein function and for treatment of proliferative diseases” (Schering Corp., priority 1993, dated 2002) can be followed below.

Each structure is given as a SMILES string.

Assay [1] relates to disordered cell growth induced by transforming Ras-CVLS in COS monkey kidney cells. Description: Cell-based assay: disordered cell growth induced by transforming Ras in COS cells (microscopy). The text has this: (§1) 2. Cell-Based Assay: Transient expression of val^12-Ha-Ras-CVLS and val^12-Ha-Ras-CVLL in COS monkey kidney cells: Effect of farnesyl protein transferase inhibitors on Ras processing and on disordered cell growth induced by transforming Ras.
(§2) COS monkey kidney cells were transfected by electroporation with the plasmid pSV-SPORT (Gibco/BRL) containing a cDNA insert encoding either Ras-CVLS or Ras-CVLL, leading to transient overexpression of a Ras substrate for either farnesyl protein transferase or geranylgeranyl protein transferase I, respectively (see above).
(§3) Following electroporation, cells were plated into 6-well tissue culture dishes containing 1.5 ml of Dulbecco's-modified Eagle's media (GIBCO, Inc.) supplemented with 10% fetal calf serum and the appropriate farnesyl protein transferase inhibitors. After 24 hours, media was removed and fresh media containing the appropriate drugs was re-added.
48 hours after electroporation cells were examined under the microscope to monitor disordered cell growth induced by transforming Ras. Cells expressing transforming Ras become more rounded and refractile and overgrow the monolayer, reminiscent of the transformed phenotype. […]

Assay [2] deals with T24-BAG4 human bladder carcinoma cells expressing an activated H-ras gene. Description: Cell Mat assay: inhibition of tumor cell growth. It counts as cell-based. The settings on record: Homo sapiens, tIC50. Here is the method: (§4) Normal human HEPM fibroblasts were planted in 3.5 cm dishes at a density of 5×10^4 cells/dish in 2 ml growth medium, and incubated for 3-5 d to achieve confluence. Medium was aspirated from each dish and the indicator tumor cells, T24-BAG4 human bladder carcinoma cells expressing an activated H-ras gene, were planted on top of the fibroblast monolayer at a density of 2×10^3cells/dish in 2 ml growth medium, and allowed to attach overnight. Compound-induced colony inhibition was assayed by addition of serial dilutions of compound directly to the growth medium 24 h after tumor cell planting, and incubating cells for an additional 14 d to allow colony formation. Assays were terminated by rinsing monolayers twice with phosphate-buffered saline (PBS), fixing the monolayers with a 1% glutaraldehyde solution in PBS, then visualizing tumor cells by staining with X-Gal (Price, J., et al., Lineage analysis in the vertebrate nervous system by retrovirus-mediated gene transfer, Proc. Natl. Acad. Sci.84, 156-160(1987)). […] Both IC50 values were obtained by determining the density of tumor cells and mat cells by visual inspection and enumeration of cells per colony and the number of colonies under the microscope. The therapeutic index of the compound was quantitatively expressed as the ratio of mIC50/tIC50, with values greater than one indicative of tumor target specificity.

Assay [3] deals with T1, farnesyl protein transferase (FPT) (Rattus norvegicus, UniProt Q02293+Q04631).
T1 construct: were partially purified from rat brain by ammonium sulfate fractionation followed by Q-Sepharose; from tissue; host or cells: rat brain
Description: In vitro enzyme assay: inhibition of farnesyl protein transferase. Conditions: Ras-CVLS farnesylation, partially purified rat brain FPT; read-out: FPT IC50. It counts as biochemical. The procedure: 1. In vitro enzyme assays: Inhibition of farnesyl protein transferase and geranylgeranyl protein transferase.
Human farnesyl protein transferase was also expressed in E. coli, using cDNA clones encoding both the α and β subunits. […] Two forms of val^12-Ha-Ras protein were prepared as substrates for these enzymes, differing in their carboxy terminal sequence. One form terminated in cysteine-valine-leucine-serine (Ras-CVLS) the other in cystein-valine-leucine-leucine (Ras-CVLL). Ras-CVLS is a substrate for the farnesyl protein transferase while Ras-CVLL is a substrate for geranylgeranyl protein transferase I. The cDNAs encoding these proteins were constructed so that the proteins contain an amino-terminal extension of 6 histidine residues. Both proteins were expressed in Escherichia coli and purified using metal chelate affinity chromatography. The radiolabelled isoprenyl pyrophosphate substrates, [^3H]farnesyl pyrophosphate and [^3H]geranylgeranyl pyrophosphate, were purchased from DuPont/New England Nuclear.
The reaction was allowed to proceed for 30 minutes at room temperature and then stopped with 0.5 ml of 4% sodium dodecyl sulfate (SDS) followed by 0.5 ml of cold 30% trichloracetic acid (TCA). Samples were allowed to sit on ice for 45 minutes and precipitated Ras protein was then collected on GF/C filter paper mats using a Brandel cell harvester. […] Percent inhibition was calculated relative to the DMSO vehicle control.

The subject of assay [4] is Normal human HEPM fibroblasts. The experiment in a line: Cell Mat assay: inhibition of normal cell growth. It counts as cell-based. The settings on record: Homo sapiens, Fibroblast, mIC50, normal cell monolayer. The procedure:
as §4

For assay [5], the system named is C-f-1 [mouse fibroblast transformed with c-fos oncogene]. The experiment in a line: In vivo anti-tumor study, C-f-1 s.c. tumor. The settings on record: C-f-1 s.c. in athymic nu/nu mice, BID. The text has this: In Vivo Anti-Tumor Studies
Tumor cells (5×10^5 to 8×10^6 of M27 [mouse Lewis lung carcinoma], A431 [human epidermal carcinoma] or SW620 [human colon adenocarcinoma (lymph node metastasis)]) are innoculated subcutaneously into the flank of 5-6 week old athymic nu/nu female mice. For the C-f-1 [mouse fibroblast transformed with c-fos oncogene] tumor model, 2 mm^3 tumor fragments are transplanted subcutaneously into the flank of 5-6 week old athymic nu/nu female mice. Tumor bearing animals are selected and randomized when the tumors are established. Animals are treated with vehicle (beta cyclodextran for i.p. or corn oil for p.o.) only or compounds in vehicle twice a day (BID) for 5 (1-5) or 7 (1-7) days per week for 2 (×2) or 4 (×4) weeks. The percent inhibition of tumor growth relative to vehicle controls are determined by tumor measurements.

The subject of assay [6] is Ras-CVLS processing in COS monkey kidney cells. Description: Cell-based assay: Ras-CVLS processing in transfected COS cells (immunoblot). The settings on record: Primates; inhibition of Ras-CVLS processing in Ras-transfected COS cells.
Description: as §1, §2, §3
48 hours after electroporation cells were examined under the microscope to monitor disordered cell growth induced by transforming Ras. Cells expressing transforming Ras become more rounded and refractile and overgrow the monolayer, reminiscent of the transformed phenotype. Cells were then photographed, washed twice with 1 ml of cold phosphate-buffered saline (PBS) and removed from the dish by scraping with a rubber policeman into 1 ml of a buffer containing 25 mM Tris, pH 8.0; 1 mM ethylenediamine tetraacetic acid; 1 mM phenylmethylsulfonyl fluoride; 50 μM leupeptin; and 0.1 μM pepstatin. Cells were lysed by homogenization and cell debris was removed by centrifugation at 2000×g for 10 min.
Cellular protein was precipitated by addition of ice-cold trichloroacetic acid and redissolved in 100 μl of SDS-electrophoresis sample buffer. Samples (5-10 μl) were loaded onto 14% polyacrylamide minigels (Novex, Inc.) and electrophoresed until the tracking dye neared the bottom of the gel. Proteins resolved on the gels were electroblotted onto nitrocellulose membranes for immunodetection.
Membranes were blocked by incubation overnight at 4° C. in PBS containing 2.5% dried milk and 0.5% Tween-20 and then incubated with a Ras-specific monoclonal antibody, Y13-259 (Furth, M. E., et al., (1982), Monoclonal antibodies to the p21 products of the transforming gene of Harvey murine sarcome virus and of the cellular ras gene family, J. Virol. 43: 294-304), in PBS containing 1% fetal calf serum for one hour at room temperature. After washing, membranes were incubated for one hour at room temperature with a 1:5000 dilution of secondary antibody, rabbit anti-rat IgG conjugated to horseradish peroxidase, in PBS containing 1% fetal calf serum. The presence of processed and unprocessed Ras-CVLS or Ras-CVLL was detected using a calorimetric peroxidase reagent (4-chloro-1-naphthol) as described by the manufacturer (Bio-Rad).
For orientation: Immunoblotting shows a protein as a band on a membrane.

Take `CCOC(=O)N1CCC(C2(F)c3ccc(Cl)cc3CCc3cccnc32)CC1` (centres unmarked) [Compound 530.00]: the “response to oncogenic Ras-CVLS (overgrowth of monolayer, dense foci)” value in assay [1] (at 6.6 μg/ml) and in assay [1] (at 20 μg/ml) was “inhibited” throughout. Besides, the 50% inhibitory concentration (IC50) in assay [2] is 12.5 µM; in assay [3], 3.7 µM; in assay [4], 100 µM; in assay [6], 15.4 µM. The “% Inhibition (tumor growth relative to vehicle controls)” value in assay [5] (ip, 1-5, × 2) is on record as 17.8%; in assay [5] (po, 1-5, × 4), 69%.

As a reminder, the IC50 is the concentration needed to halve the response being measured.
